These compounds were tested against Mitogen-activated protein kinase 1 (Homo sapiens, UniProt P28482).
In the case of `CCOc1cc2ncc(C#N)c(Nc3ccc(F)c(Cl)c3)c2cc1NC(=O)/C=C/CN(C)C` [PELITINIB], the Kd is reported as > 10 µM. In the case of `Oc1ccc(-c2nc(-c3ccncc3)c(-c3ccc(F)cc3)[nH]2)cc1` [SB-202190], the Kd is reported as > 10 µM.

What follows are compounds tested against Casein kinase I isoform delta (Homo sapiens, UniProt P48730).
Compound `CCOc1cc2ncc(C#N)c(Nc3ccc(F)c(Cl)c3)c2cc1NC(=O)/C=C/CN(C)C` [PELITINIB] has a Kd of 1.1 µM.

Each compound was assayed against Receptor-type tyrosine-protein kinase FLT3 (Homo sapiens, UniProt P36888, D835Y).
`CCOc1cc2ncc(C#N)c(Nc3ccc(F)c(Cl)c3)c2cc1NC(=O)/C=C/CN(C)C` [PELITINIB] showed a Kd of 2.8 µM. `Oc1ccc(-c2nc(-c3ccncc3)c(-c3ccc(F)cc3)[nH]2)cc1` [SB-202190] was tested, and the Kd was > 10 µM.

The compounds below were run against Tyrosine-protein kinase SYK (Homo sapiens, UniProt P43405).
Compound `CCOc1cc2ncc(C#N)c(Nc3ccc(F)c(Cl)c3)c2cc1NC(=O)/C=C/CN(C)C` [PELITINIB] has a Kd of 7.2 µM. With `Oc1ccc(-c2nc(-c3ccncc3)c(-c3ccc(F)cc3)[nH]2)cc1` [SB-202190] the Kd was > 10 µM.

These compounds were tested against Citron Rho-interacting kinase (Homo sapiens, UniProt O14578).
In the case of `CCOc1cc2ncc(C#N)c(Nc3ccc(F)c(Cl)c3)c2cc1NC(=O)/C=C/CN(C)C` [PELITINIB], the Kd is reported as 0.31 µM. Compound `Oc1ccc(-c2nc(-c3ccncc3)c(-c3ccc(F)cc3)[nH]2)cc1` [SB-202190] has a Kd of 0.51 µM.

Each compound was assayed against Tyrosine-protein kinase Lck (Homo sapiens, UniProt P06239).
For `Oc1ccc(-c2nc(-c3ccncc3)c(-c3ccc(F)cc3)[nH]2)cc1` [SB-202190], the Kd was > 10 µM.

The compounds below were run against Receptor tyrosine-protein kinase erbB-2 (Homo sapiens, UniProt P04626).
In the case of `CCOc1cc2ncc(C#N)c(Nc3ccc(F)c(Cl)c3)c2cc1NC(=O)/C=C/CN(C)C` [PELITINIB], the Kd is reported as 0.5 µM. For `Oc1ccc(-c2nc(-c3ccncc3)c(-c3ccc(F)cc3)[nH]2)cc1` [SB-202190], the Kd was > 10 µM.

Each compound was assayed against SRSF protein kinase 2 (Homo sapiens, UniProt P78362).
In the case of `CCOc1cc2ncc(C#N)c(Nc3ccc(F)c(Cl)c3)c2cc1NC(=O)/C=C/CN(C)C` [PELITINIB], the Kd is reported as > 10 µM. For `Oc1ccc(-c2nc(-c3ccncc3)c(-c3ccc(F)cc3)[nH]2)cc1` [SB-202190], the Kd was > 10 µM.

These compounds were tested against Calcium/calmodulin-dependent protein kinase type II subunit beta (Homo sapiens, UniProt Q13554).
With `CCOc1cc2ncc(C#N)c(Nc3ccc(F)c(Cl)c3)c2cc1NC(=O)/C=C/CN(C)C` [PELITINIB] the Kd was > 10 µM. In the case of `Oc1ccc(-c2nc(-c3ccncc3)c(-c3ccc(F)cc3)[nH]2)cc1` [SB-202190], the Kd is reported as > 10 µM.

These compounds were tested against T1, cGMP-dependent protein kinase 1 (Homo sapiens, UniProt Q13976).
T1 sequence (Q13976 whole entry): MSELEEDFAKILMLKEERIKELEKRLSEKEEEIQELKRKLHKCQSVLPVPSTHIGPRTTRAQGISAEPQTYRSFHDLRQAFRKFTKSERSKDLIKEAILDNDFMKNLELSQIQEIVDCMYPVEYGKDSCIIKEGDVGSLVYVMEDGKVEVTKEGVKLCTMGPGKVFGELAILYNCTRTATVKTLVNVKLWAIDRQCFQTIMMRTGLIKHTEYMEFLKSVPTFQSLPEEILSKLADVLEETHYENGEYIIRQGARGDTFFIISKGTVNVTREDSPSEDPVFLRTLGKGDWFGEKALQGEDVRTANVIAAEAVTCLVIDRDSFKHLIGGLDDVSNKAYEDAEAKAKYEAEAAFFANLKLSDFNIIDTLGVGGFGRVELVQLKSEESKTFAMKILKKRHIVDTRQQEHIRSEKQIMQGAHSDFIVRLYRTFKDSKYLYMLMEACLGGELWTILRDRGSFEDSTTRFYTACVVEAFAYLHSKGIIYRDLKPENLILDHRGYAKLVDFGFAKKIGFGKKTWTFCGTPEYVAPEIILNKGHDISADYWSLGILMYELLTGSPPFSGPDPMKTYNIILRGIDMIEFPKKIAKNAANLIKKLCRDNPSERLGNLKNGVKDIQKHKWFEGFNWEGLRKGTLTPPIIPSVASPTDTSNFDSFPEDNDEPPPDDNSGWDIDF
With `CCOc1cc2ncc(C#N)c(Nc3ccc(F)c(Cl)c3)c2cc1NC(=O)/C=C/CN(C)C` [PELITINIB] the Kd was > 10 µM. For `Oc1ccc(-c2nc(-c3ccncc3)c(-c3ccc(F)cc3)[nH]2)cc1` [SB-202190], the Kd was > 10 µM.

The compounds below were run against Wee1-like protein kinase (Homo sapiens, UniProt P30291).
With `Oc1ccc(-c2nc(-c3ccncc3)c(-c3ccc(F)cc3)[nH]2)cc1` [SB-202190] the Kd was > 10 µM.

The compounds below were run against Cyclin-dependent kinase 19 (Homo sapiens, UniProt Q9BWU1).
`CCOc1cc2ncc(C#N)c(Nc3ccc(F)c(Cl)c3)c2cc1NC(=O)/C=C/CN(C)C` [PELITINIB] was tested, and the Kd was > 10 µM. `Oc1ccc(-c2nc(-c3ccncc3)c(-c3ccc(F)cc3)[nH]2)cc1` [SB-202190] was tested, and the Kd was > 10 µM.

Each compound was assayed against Receptor-interacting serine/threonine-protein kinase 2 (Homo sapiens, UniProt O43353).
In the case of `CCOc1cc2ncc(C#N)c(Nc3ccc(F)c(Cl)c3)c2cc1NC(=O)/C=C/CN(C)C` [PELITINIB], the Kd is reported as > 10 µM.

The compounds below were run against Mitogen-activated protein kinase kinase kinase 20 (Homo sapiens, UniProt Q9NYL2).
`CCOc1cc2ncc(C#N)c(Nc3ccc(F)c(Cl)c3)c2cc1NC(=O)/C=C/CN(C)C` [PELITINIB] was tested, and the Kd was 1.2 µM. `Oc1ccc(-c2nc(-c3ccncc3)c(-c3ccc(F)cc3)[nH]2)cc1` [SB-202190] was tested, and the Kd was > 10 µM.

The compounds below were run against Serine/threonine-protein kinase MRCK alpha (Homo sapiens, UniProt Q5VT25).
`CCOc1cc2ncc(C#N)c(Nc3ccc(F)c(Cl)c3)c2cc1NC(=O)/C=C/CN(C)C` [PELITINIB] was tested, and the Kd was > 10 µM. In the case of `Oc1ccc(-c2nc(-c3ccncc3)c(-c3ccc(F)cc3)[nH]2)cc1` [SB-202190], the Kd is reported as > 10 µM.

Each compound was assayed against Tyrosine-protein kinase Blk (Homo sapiens, UniProt P51451).
Work on `CCOc1cc2ncc(C#N)c(Nc3ccc(F)c(Cl)c3)c2cc1NC(=O)/C=C/CN(C)C` [PELITINIB] yielded a Kd of 0.078 µM. For `Oc1ccc(-c2nc(-c3ccncc3)c(-c3ccc(F)cc3)[nH]2)cc1` [SB-202190], the Kd was > 10 µM.

What follows are compounds tested against Mitogen-activated protein kinase 11 (Homo sapiens, UniProt Q15759).
With `CCOc1cc2ncc(C#N)c(Nc3ccc(F)c(Cl)c3)c2cc1NC(=O)/C=C/CN(C)C` [PELITINIB] the Kd was > 10 µM.

What follows are compounds tested against T2, Serine/threonine-protein kinase DCLK1 (Homo sapiens, UniProt O15075).
T2 sequence (O15075 whole entry): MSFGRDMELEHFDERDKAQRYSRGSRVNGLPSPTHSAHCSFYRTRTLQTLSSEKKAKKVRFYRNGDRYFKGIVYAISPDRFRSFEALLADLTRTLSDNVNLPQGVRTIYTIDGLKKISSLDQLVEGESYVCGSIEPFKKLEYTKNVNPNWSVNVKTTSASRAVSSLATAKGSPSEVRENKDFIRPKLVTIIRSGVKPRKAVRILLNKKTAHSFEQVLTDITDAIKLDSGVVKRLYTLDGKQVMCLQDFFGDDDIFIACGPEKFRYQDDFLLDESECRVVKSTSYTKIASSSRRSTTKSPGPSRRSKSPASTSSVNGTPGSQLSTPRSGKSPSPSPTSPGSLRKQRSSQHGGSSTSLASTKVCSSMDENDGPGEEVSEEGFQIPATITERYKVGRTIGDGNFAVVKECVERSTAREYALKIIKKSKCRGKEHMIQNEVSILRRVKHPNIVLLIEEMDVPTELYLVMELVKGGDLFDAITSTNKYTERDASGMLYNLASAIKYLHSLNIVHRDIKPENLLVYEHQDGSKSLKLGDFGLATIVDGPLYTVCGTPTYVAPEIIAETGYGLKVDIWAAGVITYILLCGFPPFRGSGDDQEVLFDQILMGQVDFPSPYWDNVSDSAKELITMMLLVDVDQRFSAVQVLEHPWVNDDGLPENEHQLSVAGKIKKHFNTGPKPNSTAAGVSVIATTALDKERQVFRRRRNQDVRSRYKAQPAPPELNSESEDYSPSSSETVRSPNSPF
`CCOc1cc2ncc(C#N)c(Nc3ccc(F)c(Cl)c3)c2cc1NC(=O)/C=C/CN(C)C` [PELITINIB] was tested, and the Kd was > 10 µM. In the case of `Oc1ccc(-c2nc(-c3ccncc3)c(-c3ccc(F)cc3)[nH]2)cc1` [SB-202190], the Kd is reported as > 10 µM.

The compounds below were run against Tyrosine-protein kinase HCK (Homo sapiens, UniProt P08631).
`Oc1ccc(-c2nc(-c3ccncc3)c(-c3ccc(F)cc3)[nH]2)cc1` [SB-202190] was tested, and the Kd was > 10 µM.

These compounds were tested against Serine/threonine-protein kinase B-raf (Homo sapiens, UniProt P15056, V600E).
`CCOc1cc2ncc(C#N)c(Nc3ccc(F)c(Cl)c3)c2cc1NC(=O)/C=C/CN(C)C` [PELITINIB] was tested, and the Kd was > 10 µM. `Oc1ccc(-c2nc(-c3ccncc3)c(-c3ccc(F)cc3)[nH]2)cc1` [SB-202190] was tested, and the Kd was 0.62 µM.

Each compound was assayed against Mitogen-activated protein kinase 9 (Homo sapiens, UniProt P45984).
In the case of `CCOc1cc2ncc(C#N)c(Nc3ccc(F)c(Cl)c3)c2cc1NC(=O)/C=C/CN(C)C` [PELITINIB], the Kd is reported as > 10 µM.

Reference: ChEMBL document CHEMBL1150977, “A quantitative analysis of kinase inhibitor selectivity” (Nat Biotechnol, 2008)
